For 27 compounds, Ki results are on record in patent US20240150293A1, “SPIROCYCLOHEXANE DERIVATIVES, PHARMACEUTICAL COMPOSITIONS CONTAINING THEM AND THEIR USES AS ANTI-APOPTOTIC INHIBITORS” (LES LABORATOIRES SERVIER, priority 2021, published 2024).

For this assay, the target named is Mcl-1 protein (UniProtKB Q07820) (Homo sapiens (Human), UniProt Q07820). In words: Inhibition of Mcl-1 by the fluorescence polarisation assay (Example A, Method A). The format is binding. The settings on record: fluorescence polarization assay. The procedure: The relative binding potency of each compound was determined via Fluorescence Polarisation (FP). The method utilised a Fluorescein labelled ligand (Fluorescein-βAla-Ahx-A-REIGAQLRRMADDLNAQY-OH; MW 2,765) which binds to the Mcl-1 protein (such that Mcl-1 corresponds to the UniProtKB® primary accession number: Q07820) leading to an increased anisotropy measured in milli-polarisation (mP) units using a reader. The addition of a compound which binds competitively to the same site as the ligand will result in a greater proportion of unbound ligand in the system indicated by a decrease in mP units.
Mcl-1 protein, sequence (Q07820 whole entry): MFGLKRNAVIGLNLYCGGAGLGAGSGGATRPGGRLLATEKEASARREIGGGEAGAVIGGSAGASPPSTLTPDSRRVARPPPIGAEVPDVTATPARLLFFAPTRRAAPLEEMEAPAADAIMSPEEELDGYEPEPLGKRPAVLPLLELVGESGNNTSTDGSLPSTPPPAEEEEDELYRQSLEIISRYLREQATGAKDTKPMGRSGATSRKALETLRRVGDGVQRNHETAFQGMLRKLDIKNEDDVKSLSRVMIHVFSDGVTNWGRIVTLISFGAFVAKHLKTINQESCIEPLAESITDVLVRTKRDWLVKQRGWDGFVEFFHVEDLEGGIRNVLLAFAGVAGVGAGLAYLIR
An 11 point serial dilution of each compound was prepared in DMSO and 2 μl transferred into flat bottomed, low binding, 384-well plate (final DMSO concentration 5%). 38 μl of buffer containing the Fluorescein labelled ligand (final concentration 1 nM) and Mcl-1 protein (final concentration 5 nM) was then added. Buffer components were 10 mM 4-(2-hydroxyethyl)-1-piperazineethanesulfonic acid [HEPES], 150 mM NaCl, pH 7.4 with the addition of 0.05% Tween 20.
Assay plates were incubated for 2 hours at room temperature before FP was measured on a […] Synergy Neo reader ([…], Cut off 510 nm) and mP units calculated. The binding of increasing doses of test compound was expressed as a percentage reduction in mP compared to a window established between ‘5% DMSO only’ and ‘100% inhibition’ controls. 11-point dose response curves were plotted with XL-Fit software using a 4-Parameter Logistic Model (Sigmoidal Dose-Response Model) and the inhibitory concentrations that gave a 50% reduction in mP (IC50) were determined. The Ki values were determined from the IC50 values according to Cer et al, Nucleic Acids Res, 2009, 37 (WebServer issue): W441-W445. Inhibition constants (Ki) are determined from complete binding inhibition curves (cKi) or from estimated from incomplete binding inhibition curves (eKi) in most cases due to low activity.
On the technique in general: Polarisation of emitted light reports the rotation of a fluorescent probe.
For `O=C(O)[C@]1(Nc2cccc(C(F)F)c2)CC[C@]2(CC1)C(Br)=Cc1ccccc12` [Example 83, (1s,4s)-2′-bromo-4-[3-(difluoromethyl)anilino]spiro[cyclohexane-1,1′-indene]-4-carboxylic acid], the Ki amounted to 1.36 µM. Under `C/C=C/c1ccc2c(c1)[C@]1(CC[C@](Nc3cccc(Br)c3)(C(=O)O)CC1)C(=O)N2C` [Example 12, (1r,4r)-4-(3-bromoanilino)-1′-methyl-2′-oxo-5′-[(1E)-prop-1-en-1-yl]-1′,2′-dihydrospiro[cyclohexane-1,3′-indole]-4-carboxylic acid] stands 12.4 µM; under `O=C(O)[C@]1(Nc2cccc(Cl)c2)CC[C@@]2(CC1)c1ccccc1CC2CCCSc1ccccc1` (stereo partly drawn) [Example 397, (1r,4r)-4-(3-chloroanilino)-2′-[3-(phenylsulfanyl)propyl]-2′,3′-dihydrospiro[cyclohexane-1,1′-indene]-4-carboxylic acid], 0.598 µM; under `O=C(O)[C@]1(Nc2cccc(Br)c2)CC[C@@]2(CCc3ccc(O)cc32)CC1` [Example 63, (1r,4s)-4-(3-bromoanilino)-6′-hydroxy-2′,3′-dihydrospiro[cyclohexane-1,1′-indene]-4-carboxylic acid], 0.24 µM. Next, `O=C(O)[C@]1(Nc2cccc(Cl)c2)CC[C@@]2(CC1)c1ccccc1CC2c1ccc(Cl)cc1` (single isomer, unassigned) [Example 320, (1r,4r)-4-(3-chloroanilino)-2′-(4-chlorophenyl)-2′,3′-dihydrospiro[cyclohexane-1,1′-indene]-4-carboxylic acid]: 6.86 µM; `O=C(O)[C@]1(Nc2cccc(Cl)c2)CC[C@@]2(CC1)c1ccccc1CC2c1cccc(Cl)c1` (single isomer, unassigned) [Example 344, (1r,4r)-4-(3-chloroanilino)-2′-(3-chlorophenyl)-2′,3′-dihydrospiro[cyclohexane-1,1′-indene]-4-carboxylic acid]: 11.2 µM.

As for `COc1ccc(C2=Cc3ccccc3[C@]23CC[C@@](Nc2cccc(Cl)c2)(C(=O)O)CC3)c(Cl)c1` [Example 251, (1s,4s)-4-(3-chloroanilino)-2′-(2-chloro-4-methoxyphenyl)spiro[cyclohexane-1,1′-indene]-4-carboxylic acid], the Ki turned out to be 1.69 µM. For the compound `Cc1ccccc1C1Cc2ccccc2C12CCC(Nc1cccc(Br)c1)(C(=O)O)CC2` (stereo not drawn) [Example 214, 4-(3-bromoanilino)-2′-(2-methylphenyl)-2′,3′-dihydrospiro[cyclohexane-1,1′-indene]-4-carboxylic acid], the Ki was 7.9 µM. Next, `CC1(C)[C@H]2C=C(C3=Cc4ccccc4[C@]34CC[C@@](Nc3cccc(Cl)c3)(C(=O)O)CC4)[C@]1(C)CC2` [Example 276, (1s,4S)-4-(3-chloroanilino)-2′-[(1R,4R)-1,7,7-trimethylbicyclo[2.2.1]hept-2-en-2-yl]spiro[cyclohexane-1,1′-indene]-4-carboxylic acid]: 36.7 µM; `O=C(O)[C@]1(Nc2cccc(Cl)c2)CC[C@@]2(CC1)c1ccccc1CC2CCCSc1ccncc1` (stereo partly drawn) [Example 399, (1r,4r)-4-(3-chloroanilino)-2′-{3-[(pyridin-4-yl)sulfanyl]propyl}-2′,3′-dihydrospiro[cyclohexane-1,1′-indene]-4-carboxylic acid]: 0.299 µM; `COc1cc(OC)cc([C@@H]2Cc3ccccc3[C@]23CC[C@@](Nc2cccc(Cl)c2)(C(=O)O)CC3)c1` [Example 336, (1r,2′S,4S)-4-(3-chloroanilino)-2′-(3,5-dimethoxyphenyl)-2′,3′-dihydrospiro[cyclohexane-1,1′-indene]-4-carboxylic acid]: 2.44 µM. Under `CC1N(C)c2ccccc2[C@]12CC[C@@](Nc1cccc(Br)c1)(C(=O)O)CC2` (stereo partly drawn) [Example 24, (1s,4s)-4-(3-bromoanilino)-1′,2′-dimethyl-1′,2′-dihydrospiro[cyclohexane-1,3′-indole]-4-carboxylic acid] stands 19.9 µM; under `O=C(O)[C@]1(Nc2cccc(Cl)c2)CC[C@]2(CC1)C(c1ccc(OCc3ccncc3)cc1)=Cc1ccccc12` [Example 349, (1s,4s)-4-(3-chloroanilino)-2′-{4-[(pyridin-4-yl)methoxy]phenyl}spiro[cyclohexane-1,1′-indene]-4-carboxylic acid], 3.59 µM; under `O=C(O)[C@]1(Nc2cccc(Cl)c2)CC[C@@]2(CC1)c1ccccc1CC2[C@H]1C[C@@H]1COc1ccccc1` (single isomer, unassigned) [Example 112, (1r,4r)-4-(3-chloroanilino)-2′-[(1R*,2S*)-2-(phenoxymethyl)cyclopropyl]-2′,3′-dihydrospiro[cyclohexane-1,1′-indene]-4-carboxylic acid], 1.62 µM. Under `O=C(O)[C@]1(Nc2cccc(Cl)c2)CC[C@@]2(CC1)c1ccccc1CC2Cc1ccccc1` (stereo partly drawn) [Example 169, (1r,4r)-2′-benzyl-4-(3-chloroanilino)-2′,3′-dihydrospiro[cyclohexane-1,1′-indene]-4-carboxylic acid] stands 4.77 µM; under `O=C(O)[C@]1(Nc2cccc(Cl)c2)CC[C@@]2(CC1)c1ccccc1CC2C1CCCC1` (single isomer, unassigned) [Example 92, (1r,4r)-4-(3-chloroanilino)-2′-cyclopentyl-2′,3′-dihydrospiro[cyclohexane-1,1′-indene]-4-carboxylic acid], 7.37 µM; under `O=C(O)[C@]1(Nc2cc(Cl)cc(Cl)c2)CC[C@@]2(CCCc3ccccc32)CC1` [Example 120, (1r,4s)-4-[(3,5-dichlorophenyl)amino]-3′,4′-dihydro-2′H-spiro[cyclohexane-1,1′-naphthalene]-4-carboxylic acid], 19.3 µM. On to `O=C(O)[C@]1(Nc2cccc(Cl)c2)CC[C@]2(CC1)C(COCCc1cccc(Cl)c1)=Cc1ccccc12` [Example 417, (1s,4s)-4-(3-chloroanilino)-2′-{[2-(3-chlorophenyl)ethoxy]methyl}spiro[cyclohexane-1,1′-indene]-4-carboxylic acid], for which the inhibition constant Ki is 0.522 µM. Next, `CN(c1cccc(Cl)c1)[C@]1(C(=O)O)CC[C@]2(C=Cc3ccccc32)CC1` [Example 73, (1r,4r)-4-[(3-chlorophenyl)(methyl)amino]spiro[cyclohexane-1,1′-indene]-4-carboxylic acid]: 60.5 µM; `CCC1=Cc2ccccc2[C@]12CC[C@](Nc1cccc(Br)c1)(C(=O)O)CC2` [Example 146, (1s,4s)-4-(3-bromoanilino)-2′-ethylspiro[cyclohexane-1,1′-indene]-4-carboxylic acid]: 6.92 µM; `O=C(O)C1(Nc2cccc(Cl)c2)CCC2(CC1)c1ccccc1CC2CCCOc1ncnc2ccsc12` (stereo not drawn) [Example 437, (1r,4r)-4-(3-chloroanilino)-2′-{3-[(thieno[3,2-d]pyrimidin-4-yl)oxy]propyl}-2′,3′-dihydrospiro[cyclohexane-1,1′-indene]-4-carboxylic acid]: 0.0776 µM.

In the case of `O=C(O)[C@]1(Nc2cccc(Cl)c2)CC[C@@]2(CC1)c1ccccc1C[C@@H]2c1cc2ccccc2o1` [Example 338, (1r,2′S,4S)-2′-(1-benzofuran-2-yl)-4-(3-chloroanilino)-2′,3′-dihydrospiro[cyclohexane-1,1′-indene]-4-carboxylic acid], the Ki turned out to be 5.69 µM. Under `O=C(O)[C@]1(Nc2cccc(Cl)c2)CC[C@@]2(CC1)c1ccccc1CC2c1cccc(OCc2cccnc2)c1` (single isomer, unassigned) [Example 372, (1r,4r)-4-(3-chloroanilino)-2′-{3-[(pyridin-3-yl)methoxy]phenyl}-2′,3′-dihydrospiro[cyclohexane-1,1′-indene]-4-carboxylic acid] stands 0.201 µM; under `COc1ccc2c(c1)[C@]1(CC[C@](Nc3cccc(Br)c3)(C(=O)O)CC1)C(C)(C)C2` [Example 128, (1s,4s)-4-(3-bromoanilino)-6′-methoxy-2′,2′-dimethyl-2′,3′-dihydrospiro[cyclohexane-1,1′-indene]-4-carboxylic acid], 46.2 µM; under `CC1=Cc2ccccc2[C@]12CC[C@@](Nc1cccc(Br)c1)(C(=O)O)CC2` [Example 142, (1r,4r)-4-(3-bromoanilino)-2′-methylspiro[cyclohexane-1,1′-indene]-4-carboxylic acid], 0.261 µM. Take `Cn1ccc2cc(C3=Cc4ccccc4[C@]34CC[C@@](Nc3cccc(Cl)c3)(C(=O)O)CC4)ccc21` [Example 264, (1s,4s)-4-(3-chloroanilino)-2′-(1-methyl-1H-indol-5-yl)spiro[cyclohexane-1,1′-indene]-4-carboxylic acid]: the inhibition constant (Ki) is 1.75 µM. Under `Cc1cnccc1CCCOC1Cc2ccccc2[C@]12CC[C@@](Nc1cccc(Cl)c1)(C(=O)O)CC2` (stereo partly drawn) [Example 401, (1s,4s)-4-(3-chloroanilino)-2′-[3-(3-methylpyridin-4-yl)propoxy]-2′,3′-dihydrospiro[cyclohexane-1,1′-indene]-4-carboxylic acid] stands 0.32 µM.

In general, Ki refers to a dissociation constant, usually derived from enzyme kinetics or from competition with a known ligand.
